pIC50: −log10 of the molar value.
Assays:
[1] = tested on: Acanthamoeba castellanii trophozoites; test: Activity against Acanthamoeba castellanii trophozoites; type: cell-based; conditions: trophozoites, n = 2, Table 6, read-out: Acanthamoeba castellanii IC50
Method: Two Acanthamoeba species (Acanthamoeba castellanii—ATCC50370 and Acanthamoeba culbertsoni—ATCC30171) were bought from the American Type Culture Collection (ATCC) and one species (Acanthamoeba healyi) was donated from the Centers for Disease Control and Prevention (CDC) for our experimentations. Trophozoites were thawed and grown in 10 mL of a nutrient rich Peptose-Glucose (PG) media. The PG media composition is 83.26 mM Glucose (15 g/L), Protease Peptone (15 g/L, yeast extract is manufactured under controlled conditions to retain its vitamin content and other nutritive values such as free amino acids, no other composition information given), 2.2 mM KH2PO4 (300 mg/L), 2.97 μM Thiamine (1 mg/L), 99.86 μM L-methionine (14.9 mg/L), 4.6 μM Vitamin B12 (83.3 μl of 0.1 mg/mL stock/L) and 68 μM Biotin (83.3 μl of 0.2 mg/mL stock/L). […] One mL/L of the salt solution was added to the media stock prior to autoclaving. All reagents were purchased from Sigma Aldrich except the Glucose which was purchased from Alfa Aesar. The cell pellet was resuspended in a final volume of 10 mL of PG media, cultured in 75 cm^2 coming tissue culture flasks and incubated at 27° C. PG was supplemented with 125 μg of penicillin/streptomycin. Sub-culturing occurred twice per week to allow the continued growth and development of the Acanthamoeba trophozoites. […]

[2] = tested on: Balamuthia mandrillaris trophozoites; test: Activity against Balamuthia mandrillaris trophozoites; type: cell-based; conditions: Balamuthia mandrillaris; trophozoites, n = 2; read-out: Balamuthia mandrillaris IC50
Method: Balamuthia mandrillaris trophozoites were thawed and grown in 10 ml of BM-3 medium. […] After autoclaving, complete BM-3 media was produced by the addition of 10% fetal bovine serum and 125 μg of penicillin/streptomycin antibiotics. The table describes all of the compounds and the activity against Balamuthia trophozoites compared to the activity for select Acanthamoeba trophozoites shown in Table 5.

Row | SMILES | pIC50 [1] | pIC50 [2]
1 | CC(C)NC(=N)c1ccc2nc(-c3ccc(Oc4ccc(-c5nc6ccc(C(=N)NC(C)C)cc6[nH]5)cc4C#N)cc3)[nH]c2c1 [V, 2-(3-Cyano-4-(4-(6-(N-isopropylcarbamimidoyl)-1H-benzo[d]imidazol-2-yl)phenoxy)phenyl)-N-isopropyl-1H-benzo[d]imidazole-6-carboximidamide] | 5.99 | 7.15
2 | CC(C)NC(=N)c1ccc2nc(-c3ccc(Oc4c(F)cc(-c5nc6ccc(C(=N)NC(C)C)cc6[nH]5)cc4F)cc3)[nH]c2c1 [W, 2-(3,5-Difluoro-4-(4-(6-(N-isopropylcarbamimidoyl)-1H-benzo[d]imidazol-2-yl)phenoxy)phenyl)-N-isopropyl-1H-benzo[d]imidazole-6-carboximidamide] | 4.48 | 6.54

Second part, the molecule after the results:

Row | pIC50 [1] | pIC50 [2] | SMILES
3 | 6.21 | 7.00 | CC(C)NC(=N)c1ccc2nc(-c3ccc(Oc4ccc(-c5nc6ccc(C(=N)NC(C)C)cc6[nH]5)cc4C#N)c(F)c3)[nH]c2c1 [X, 2-(3-Cyano-4-(2-fluoro-4-(6-(N-isopropylcarbamimidoyl)-1H-benzo[d]imidazol-2-yl)phenoxy)phenyl)-N-isopropyl-1H-benzo[d]imidazole-6-carboximidamide]
4 | 6.02 | 7.05 | CC(C)NC(=N)c1ccc2nc(-c3ccc(Oc4ccc(-c5nc6ccc(C(=N)NC(C)C)cc6[nH]5)c(F)c4)c(C#N)c3)[nH]c2c1 [Y, 2-(3-Cyano-4-(3-fluoro-4-(6-(N-isopropylcarbamimidoyl)-1H-benzo[d]imidazol-2-yl)phenoxy)phenyl)-N-isopropyl-1H-benzo[d]imidazole-6-carboximidamide]
5 | 5.73 | 6.55 | COc1cc(Oc2ccc(-c3nc4ccc(C(=N)NC(C)C)cc4[nH]3)cc2C#N)ccc1-c1nc2ccc(C(=N)NC(C)C)cc2[nH]1 [Z, 2-(3-Cyano-4-(4-(6-(N-isopropylcarbamimidoyl)-1H-benzo[d]imidazol-2-yl)-3-methoxyphenoxy)phenyl)-N-isopropyl-1H-benzo[d]imidazole-6-carboximidamide]
